Measurements taken from patent US20150018417A1, “FATTY ACIDS AS ANTI-INFLAMMATORY AGENTS” (University of Pittsburgh - Of the Commonwealth System of …, priority 2012, published 2015).
Entries after “also recorded” stand apart in the source; their conditions may differ. Each block holds one molecule with its values, some of them ahead of it.

Columns and labels:
[1] = system: RAW264.7 cells; test: EFAD formation in activated RAW264.7 cells treated with inhibitors; type: cell-based, murine
[2] = target: T1, PPARγ (Homo sapiens, UniProt P37231); test: PPARγ beta-lactamase reporter assay; type: cell-based; details: concentrations 0.5-10,000 nM, read-out: EC50 PPARγ activation
T1 sequence (P37231 1-505): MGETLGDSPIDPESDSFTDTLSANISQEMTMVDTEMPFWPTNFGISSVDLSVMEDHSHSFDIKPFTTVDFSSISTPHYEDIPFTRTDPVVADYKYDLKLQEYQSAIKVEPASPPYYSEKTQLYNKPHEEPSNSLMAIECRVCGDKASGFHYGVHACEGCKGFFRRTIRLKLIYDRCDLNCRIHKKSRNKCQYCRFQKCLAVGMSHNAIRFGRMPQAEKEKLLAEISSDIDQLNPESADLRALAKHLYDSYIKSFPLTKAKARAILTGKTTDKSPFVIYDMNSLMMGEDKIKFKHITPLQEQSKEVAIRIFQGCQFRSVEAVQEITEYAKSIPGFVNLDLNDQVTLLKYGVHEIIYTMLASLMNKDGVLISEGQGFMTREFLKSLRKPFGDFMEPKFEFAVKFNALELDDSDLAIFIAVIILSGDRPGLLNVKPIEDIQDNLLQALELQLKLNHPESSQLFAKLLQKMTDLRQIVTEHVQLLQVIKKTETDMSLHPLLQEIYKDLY
Experimental: (§1) FIG. 11 illustrates modulation of anti-oxidant and inflammatory responses by 17-oxoDHA and 17-oxoDPA. RAW264.7 cells were treated with increasing concentration of 17-oxoDHA and 17-oxoDPA. (a) Cells were harvested 1 h after treatment and Nrf2 levels were quantified in nuclear extracts, (b) Cells were harvested 18 h after treatment and HO—I and Nqol (upper band) levels were measured by western blot, (c, d) RAW264.7 cells were treated with increasing concentration of 17-oxoDHA and 17-oxoDP A for 6 h and Kdo2+IFNγ were added. Samples were collected at 12 h. IL-6, MCP-I and IL-IO levels were measured in the cell media by Quantikine ELISA Kit (R&D Systems) and normalized by the total protein content (c); Nitrite levels were measured in the cell media and normalized by the total protein content and iNOS and Cox-2 levels were measured in total cell lysates (d); (e) PPARγ beta-lactamase reporter assays were performed for Rosiglitazone, 17-OxoDPA, 17-OxoDHA, 15d-PGJ2, 17-hydroxyDHA, DPA, and DHA with concentrations ranging from 0.5-10,000 nM.
The observation that oxo-fatty acids, such as 15d-PGJ230, 5-oxoEPA, 6-oxoOTE, and the synthetic 4-oxoDHA31, covalently bind and activate the peroxisome proliferator-activated receptor γ (PPARγ), prompted the present inventors to test the ability of 17-oxoDPA, and 17-oxoDHA to activate PPARγ. Thus PPARγ beta-lactamase reporter assays were performed using Roziglitazone, a potent synthetic PPARγ agonist, was used in the assay as positive control.

[3] = system: RAW264.7 cells; test: Cytokine levels (IL-6, MCP-I, IL-10) in activated RAW264.7 cells, ELISA; type: cell-based, murine
Experimental: as §1
To investigate whether the 17-oxo DHA and 17-oxo DPA played a role in modulating the inflammatory response generated by Kdo2 and IFNγ, the present investigators study the change in levels of cytokines, IL-6, MCP-I and IL-IO in cells exposed to increasing doses of 17-oxo DHA and 17-oxo DPA. […]

[4] = system: Nrf2; test: Nrf2 nuclear accumulation and HO-1/Nqo1 expression, western blot; type: cell-based, murine; details: RAW264.7; Nrf2 at 1 h, HO-1/Nqo1 at 18 h
Experimental: as §1
As described above, compounds of the invention can react with biological thiols to form reversible covalent adducts. […]
(§2) Protein concentrations of samples were measured by BCA assay (Pierce). […] Actin (detected by Sigma A2066) was used as loading control. […]

[5] = system: inducible nitric oxide synthase (iNOS); test: iNOS induction and nitrite accumulation in activated RAW264.7 cells; type: cell-based, murine; details: RAW264.7 activated with Kdo2 and IFNγ
Experimental: as §1
For activation experiments RAW 264.7 cells were seeded, incubated overnight, and treated at approximately 80% confluence with the indicated compounds 47. Non-activated controls were treated with vehicle alone. During activation, cells were maintained in an activation medium (SMEM) of Minimum Essential Medium Eagle (Cellgro, 17-305)+2% FBS supplemented with L-glutamine (584 mg/L), Na-pyruvate (110 mg/L) and Hepes (3.57 g/L, pH 7.4). For inhibition studies, inhibitors were added to the medium at the time of activation and MTT assays were used to confirm cell viability. Cells were harvested 20 h post activation (unless otherwise indicated) in 50 mM phosphate buffer (pH 7.4) and snap frozen in liquid N2. […]
as §2
(§3) Total nitrite and nitrate concentration was measured in cell culture media by Griess reaction using the Nitrate/Nitrite Colorimetric Assay Kit (Cayman Chemical).

[6] = target: GAPDH (Oryctolagus cuniculus, UniProt P46406); test: In vitro alkylation of GAPDH, mass spectrometric analysis; type: biochemical, rabbit
Sequence of GAPDH (P46406 whole entry): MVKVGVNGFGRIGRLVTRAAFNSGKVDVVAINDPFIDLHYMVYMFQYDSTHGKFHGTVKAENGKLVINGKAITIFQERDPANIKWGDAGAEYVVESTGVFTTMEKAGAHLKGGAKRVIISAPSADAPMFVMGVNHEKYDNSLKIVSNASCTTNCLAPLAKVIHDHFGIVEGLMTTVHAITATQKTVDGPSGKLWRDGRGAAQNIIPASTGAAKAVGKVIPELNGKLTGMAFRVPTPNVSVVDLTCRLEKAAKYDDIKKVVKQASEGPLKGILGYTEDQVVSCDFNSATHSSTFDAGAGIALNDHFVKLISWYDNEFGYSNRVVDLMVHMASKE
Text: FIG. 21 illustrates the mass spectrometric analysis of an in vitro reaction of GAPDHvith EFAD-2. Four residues were detected and confirmed-as being targets for EfAD-2 in treated rabbit GAPDH. The peptides were alkylated as Cys244 (a), His163 (b), Cys149 (c) and His328 (d). Upper panels show EFAD-2 modified peptides and lower panels show spectra from corresponding native peptide.
To more specifically test the binding of EFADs to nucleophilic residues in proteins, we tested whether GAPDH was alkylated by EFADs. This enzyme is a well-characterized target for electrophiles and becomes easily inactivated by nitrosylation, oxidation or nucleophilic addition.

[7] = system: RAW264.7 cells; test: Nitrite levels in cell media of activated RAW264.7 cells (Griess reaction); type: cell-based, murine; details: 6 h pretreatment, then Kdo2+IFNγ, 12 h
Experimental: as §1
For activation experiments RAW 264.7 cells were seeded, incubated overnight, and treated at approximately 80% confluence with the indicated compounds 47. […]
as §3

[8] = RAW264.7 activated with Kdo2 and IFNγ, inhibitor added at activation, 20 h

Compound: CC(C)Cc1ccc(C(C)C(=O)O)cc1 (racemic) [ibuprofen]
- inhibition of EFAD production [1, 8]: more than 80%
- effect on EFAD-I formation ([1]; ibuprofen 100 μM, exception stated in the text): no significant effect

Compound: CCCCCC=CC=C1C(=O)C=C[C@@H]1CC=CCCCC(=O)O [15d-PGJ2, 15-deoxy-Δ (12,14)-prostaglandin J2, reference compound]
- EC50 [2]: ~25 nM

- EC50 [2]: > 10000 nM
Compound: CC/C=C\CC(O)/C=C/C=C\C/C=C\C/C=C\CCCCCC(=O)O (stereo not shown) [17-OH-DPA, 17-OH(7Z,10Z,13Z,15A,19Z)-docosa-7,10,13,15,19-pentanoic acid, reference compound]

- EC50 [2]: ~40 nM
- adduct formation with GAPDH residues [6]: covalently bind Cys and His residues
Compound: CC/C=C\CC(=O)C=C/C=C\C/C=C\C/C=C\C/C=C\CCC(=O)O [17-oxoDHA, 17-oxo-(4Z,7Z,10Z,13Z,15A,19Z)-docosa-4,7,10,13,15,19-hexanoic acid]
- IFNγ and LPS-induced cytokine production [3]: inhibited
- Nrf2 nuclear accumulation and expression of HO-1 and Nqo1 [4]: promoted dose-dependent Nrf2 nuclear accumulation; also recorded: induced the anti-oxidant response
- iNOS induction and accumulation of nitrite in the cell media [5]: dose-dependent inhibition
- reduction of nitrite production ([7]; 20 μM): −70%

- EC50 [2]: ~40 nM
- adduct formation with GAPDH residues [6]: covalently bind Cys and His residues
Compound: CC/C=C\CC(=O)C=C/C=C\C/C=C\C/C=C\CCCCCC(=O)O [17-oxoDPA, 17-oxo-(7Z,10Z,13Z,15A,19Z)-docosa-7,10,13,15,19-pentanoic acid]
- IFNγ and LPS-induced cytokine production [3]: inhibited
- Nrf2 nuclear accumulation and expression of HO-1 and Nqo1 [4]: promoted dose-dependent Nrf2 nuclear accumulation; also recorded: induced the anti-oxidant response
- iNOS induction and accumulation of nitrite in the cell media [5]: dose-dependent inhibition
- reduction of nitrite production ([7]; 25 μM): −70%

Compound: CCCCCC#CCC#CCC#CCC#CCCCC(=O)O [ETYA, Eicosatetraynoic acid]
- effect on EFAD formation [1, 8]: strongly inhibit

Compound: COc1ccc2c(c1)c(CC(=O)O)c(C)n2C(=O)c1ccc(Cl)cc1 [Indomethacin]
- effect on EFAD formation [1, 8]: completely abolish

Compound: CC(C)c1ccc2c(c1)c(SC(C)(C)C)c(CC(C)(C)C(=O)O)n2Cc1ccc(Cl)cc1 [MK886]
- effect on EFAD formation [1, 8]: no significant effect

Compound: CS(=O)(=O)Nc1ccc([N+](=O)[O-])cc1OC1CCCCC1 [NS-398]
- effect on EFAD formation [1, 8]: abolished

Compound: C=C1[C@@H](O)[C@@H]2O[C@]3(CC[C@H](/C=C/[C@@H](C)[C@@H]4CC(C)=C[C@@]5(O[C@H](C[C@@](C)(O)C(=O)O)CC[C@H]5O)O4)O3)CC[C@H]2O[C@@H]1[C@@H](O)C[C@H](C)[C@H]1O[C@@]2(CCCCO2)CC[C@H]1C [OKA, okadaic acid]
- effect on EFAD formation [1, 8]: slight increase

Compound: O=C(O)Cc1ccccc1Nc1c(Cl)cccc1Cl [diclofenac]
- effect on EFAD formation [1, 8]: completely abolish
